A short description of assay [1]: Neuroprotective effect against amyloid beta(25 to 35)-induced cell death in Harlan Sprague-Dawley rat pups cortical neurons assessed as cell viability at 5 uM treated 2 hrs before amyloid beta(25 to 35) treatment after 40 hrs by MTT assay. The note with it: for viability at 5 µM: Rattus norvegicus, Harlan Sprague-Dawley, Cortical neurone, read-out: Activity. The class given is functional, Cortical neurone. For orientation: Formazan colour is commonly taken as a measure of viable cells.

Assay [2] can be described thus: Neuroprotective effect against amyloid beta(25 to 35)-induced cell death in Harlan Sprague-Dawley rat pups cortical neurons assessed as cell viability at 10 uM treated 2 hrs before amyloid beta(25 to 35) treatment after 40 hrs by MTT assay. The following applies: Cortical neurone, read-out: Activity. The class given is functional.
Assay [3] is described as follows: Neuroprotective effect against amyloid beta(25 to 35)-induced cell death in Harlan Sprague-Dawley rat pups cortical neurons assessed as cell viability at 1 uM treated 2 hrs before amyloid beta(25 to 35) treatment after 40 hrs by MTT assay. The class given is functional, Cortical neurone. The following applies: for viability at 1 µM: Rattus norvegicus, Harlan Sprague-Dawley, Cortical neurone, read-out: Activity.

As for `C=C1CC[C@@H]2[C@](C)(CO)[C@H](O)CC[C@@]2(C)[C@@H]1/C=C/C1=CCOC1=O`, in assay [1], the viability at 5 µM was determined as 35.7%. In assay [2], the viability at 10 µM is 30.8%. In addition, the viability at 1 µM in assay [3] was 40.7%.
On to `CC(=O)N[C@@H](CC(=O)O)C(=O)N[C@@H](CCC(=O)O)C(=O)N[C@H](C(=O)N[C@H](C=O)CC(=O)O)C(C)C`, for which the viability at 5 µM in assay [1] amounted to 30.2%. In assay [2], the viability at 10 µM is 24.5%. For the same molecule, the viability at 1 µM in assay [3] is 35.8%.
The matching figures for `C=C1CC[C@H]2[C@@](C)(CO)CCC[C@]2(C)[C@H]1CCC1CCOC1=O` (some centres not stated): 25.3%, 28.1% and 34.4%.
In the case of `C=C1CC[C@H]2[C@@](C)(CO)CCC[C@]2(C)[C@H]1CCC1=CCOC1=O`, the viability at 5 µM in assay [1] is 34.8%. Besides, in assay [2], the viability at 10 µM stood at 28.9%. Also, the viability at 1 µM in assay [3] stood at 41.2%.
For `C=C1CC[C@@H]2[C@](C)(CC[C@H](O)[C@]2(C)CO)[C@H]1/C=C/C1CCOC1=O` (stereo in doubt; 2), the figures for the Activity in assay [1] and in assay [3] were 34.9% and 43.8%, respectively.
On to `C=C1CC[C@@H]2[C@](C)(CC[C@H](O)[C@]2(C)CO)[C@H]1/C=C/C1CCOC1=O` (stereo in doubt; 3), for which, in assay [1], the viability at 5 µM was 39.6%. Also, the viability at 10 µM in assay [2] was found to be 36.7%. In assay [3], the viability at 1 µM is 45.1%.

The values are drawn from ChEMBL document CHEMBL1157334, “Neuroprotective diterpenes from the fruiting body of Antrodia camphorata” (2006).
